Calls of active or inactive are those of the source.
Key:
Cytochrome P450 2D6 = Cytochrome P450 2D6 (Homo sapiens, UniProt P10635);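 note: CYP2D6 member of a cytochrome P450 panel assay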
Cytochrome P450 3A4 = Cytochrome P450 3A4 (Homo sapiens, UniProt P08684);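 note: CYP3A4 tested as one member of a cytochrome P450 panel screen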
[1] = molecular target: T1, High affinity choline transporter 1 (Homo sapiens, UniProt Q9GZV3); assay: human choline transporter blockers, potency – cell-based, 5-point CRC, membrane potential dye, dose response (AID 504840); type: functional
T1 sequence (Q9GZV3 whole entry): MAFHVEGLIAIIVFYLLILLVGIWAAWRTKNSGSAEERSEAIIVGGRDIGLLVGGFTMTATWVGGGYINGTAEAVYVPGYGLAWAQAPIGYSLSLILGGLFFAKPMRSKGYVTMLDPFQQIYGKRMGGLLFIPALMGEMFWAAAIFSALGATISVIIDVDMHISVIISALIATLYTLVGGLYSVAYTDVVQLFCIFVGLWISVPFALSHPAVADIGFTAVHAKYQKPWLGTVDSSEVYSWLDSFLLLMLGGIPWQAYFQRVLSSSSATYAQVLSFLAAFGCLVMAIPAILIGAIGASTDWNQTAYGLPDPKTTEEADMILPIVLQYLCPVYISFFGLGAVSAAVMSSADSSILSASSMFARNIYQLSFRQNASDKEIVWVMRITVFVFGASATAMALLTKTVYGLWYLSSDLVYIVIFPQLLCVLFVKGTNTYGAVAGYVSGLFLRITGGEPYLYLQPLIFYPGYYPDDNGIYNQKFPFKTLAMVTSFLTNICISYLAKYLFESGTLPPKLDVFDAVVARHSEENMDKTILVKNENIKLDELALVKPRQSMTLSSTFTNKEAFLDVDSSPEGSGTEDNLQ

Cytochrome P450 2C19 = Cytochrome P450 2C19 (Homo sapiens, UniProt P33261); assay: Cytochrome panel assay with activity outcomes. Panel member name: p450-cyp2c19 Compounds with AC50 equal or less than 10 uM are considered active; type: functional; conditions: read-out: AC50
Cytochrome P450 1A2 = molecular target: T2, Cytochrome P450 1A2 (Homo sapiens, UniProt P05177);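 note: PubChem cytochrome P450 panel assay, CYP1A2 panel member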
T2 sequence (P05177 whole entry): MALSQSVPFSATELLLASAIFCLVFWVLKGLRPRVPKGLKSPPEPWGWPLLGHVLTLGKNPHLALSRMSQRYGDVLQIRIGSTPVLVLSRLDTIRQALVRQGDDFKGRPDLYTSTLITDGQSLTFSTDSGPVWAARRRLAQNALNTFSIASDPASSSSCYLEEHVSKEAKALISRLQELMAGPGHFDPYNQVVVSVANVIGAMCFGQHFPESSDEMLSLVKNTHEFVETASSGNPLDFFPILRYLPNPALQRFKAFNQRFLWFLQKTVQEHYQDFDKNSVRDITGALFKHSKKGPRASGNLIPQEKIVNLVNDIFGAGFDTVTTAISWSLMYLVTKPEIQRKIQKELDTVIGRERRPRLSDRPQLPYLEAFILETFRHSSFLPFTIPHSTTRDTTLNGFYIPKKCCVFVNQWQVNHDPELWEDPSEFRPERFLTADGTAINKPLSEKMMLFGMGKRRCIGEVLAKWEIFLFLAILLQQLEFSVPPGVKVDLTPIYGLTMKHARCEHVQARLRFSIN

Cytochrome P450 2C9 = Cytochrome P450 2C9 (Homo sapiens, UniProt P11712)
[2] = molecular target: DNA dC->dU-editing enzyme APOBEC-3G (Homo sapiens, UniProt Q9HC16); type: functional;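 note: Dose-response counterscreen measuring inhibition of APOBEC3G DNA deaminase activity, run while confirming APOBEC3A inhibitors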
[3] = molecular target: DNA dC->dU-editing enzyme APOBEC-3A (Homo sapiens, UniProt P31941); assay: Dose Response confirmation of small molecule APOBEC3A DNA Deaminase Inhibitors via a fluorescence-based single-stranded DNA deaminase assay. [Related pubchem assays (depositor defined):AID493011, AID493024]; type: functional
[4] = molecular target: Peroxisome proliferator-activated receptor gamma/Nuclear receptor coactivator 1 (Homo sapiens, UniProt P37231); assay: TR-FRET dose response biochemical High Throughput Screening assay for agonists of the steroid receptor coactivator 1 (SRC-1) recruitment by the peroxisome proliferator-activated receptor gamma (PPAR gamma): non-selective agonists. [Related pubchem assays (depositor defined):AID1300, AID1808, AID504735, AID631]; type: protein assay
[5] = molecular target: Peroxisome proliferator-activated receptor gamma/Nuclear receptor coactivator 2 (Homo sapiens, UniProt P37231); assay: (§1) TR-FRET dose response biochemical High Throughput Screening assay for agonists of the steroid receptor coactivator 2 (SRC-2) recruitment by the peroxisome proliferator-activated receptor gamma (PPAR gamma): non-selective agonists. [Related pubchem assays: 1297, 1032 ]; type: functional
[6] = molecular target: Peroxisome proliferator-activated receptor gamma/Nuclear receptor coactivator 3 (Homo sapiens, UniProt P37231); assay: as §1, with “3 (SRC-3)” for “2 (SRC-2)”, “1301 (Confirmation screen.), 1048 (Primary screen.)]” for “1297, 1032 ]”; type: functional
cells = type: functional
[7] = molecular target: T3, Short transient receptor potential channel 4 (Mus musculus, UniProt Q9QUQ5); assay: block of DAMGO-driven TRPC4 calcium entry – cell-based, HEK293 TRPC4/mu-opioid, Fluo-4 calcium, dose response (AID 434942); type: functional;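 note: potency of inhibitors blocking the TRPC4 calcium response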
T3 sequence (Q9QUQ5 whole entry): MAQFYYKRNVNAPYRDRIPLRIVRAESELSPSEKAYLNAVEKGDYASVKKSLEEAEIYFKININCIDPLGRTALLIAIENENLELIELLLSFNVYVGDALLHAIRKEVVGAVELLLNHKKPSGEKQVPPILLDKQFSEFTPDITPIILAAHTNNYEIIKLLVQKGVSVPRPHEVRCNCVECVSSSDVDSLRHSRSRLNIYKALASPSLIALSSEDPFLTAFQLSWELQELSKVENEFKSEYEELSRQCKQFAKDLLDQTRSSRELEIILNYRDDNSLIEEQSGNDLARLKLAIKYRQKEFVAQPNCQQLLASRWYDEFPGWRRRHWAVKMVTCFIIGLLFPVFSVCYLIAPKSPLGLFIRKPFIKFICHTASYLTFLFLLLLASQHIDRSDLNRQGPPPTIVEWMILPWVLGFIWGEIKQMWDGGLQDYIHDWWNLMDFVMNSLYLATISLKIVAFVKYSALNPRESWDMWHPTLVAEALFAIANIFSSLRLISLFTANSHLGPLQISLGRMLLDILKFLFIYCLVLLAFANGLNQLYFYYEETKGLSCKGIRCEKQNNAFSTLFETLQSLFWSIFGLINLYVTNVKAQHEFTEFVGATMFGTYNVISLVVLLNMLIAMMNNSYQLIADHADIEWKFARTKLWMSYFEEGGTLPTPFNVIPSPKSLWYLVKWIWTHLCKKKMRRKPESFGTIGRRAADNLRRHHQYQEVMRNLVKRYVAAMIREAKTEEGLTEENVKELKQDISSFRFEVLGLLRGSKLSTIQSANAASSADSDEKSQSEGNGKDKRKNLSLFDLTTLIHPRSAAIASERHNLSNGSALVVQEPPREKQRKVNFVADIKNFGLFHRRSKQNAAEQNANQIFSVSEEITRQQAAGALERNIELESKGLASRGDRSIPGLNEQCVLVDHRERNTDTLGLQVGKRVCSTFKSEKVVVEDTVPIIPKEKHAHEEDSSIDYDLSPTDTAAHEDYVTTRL

Protein skinhead-1 = molecular target: T4, Protein skinhead-1 (Caenorhabditis elegans, UniProt P34707); type: functional
T4 sequence (P34707 whole entry): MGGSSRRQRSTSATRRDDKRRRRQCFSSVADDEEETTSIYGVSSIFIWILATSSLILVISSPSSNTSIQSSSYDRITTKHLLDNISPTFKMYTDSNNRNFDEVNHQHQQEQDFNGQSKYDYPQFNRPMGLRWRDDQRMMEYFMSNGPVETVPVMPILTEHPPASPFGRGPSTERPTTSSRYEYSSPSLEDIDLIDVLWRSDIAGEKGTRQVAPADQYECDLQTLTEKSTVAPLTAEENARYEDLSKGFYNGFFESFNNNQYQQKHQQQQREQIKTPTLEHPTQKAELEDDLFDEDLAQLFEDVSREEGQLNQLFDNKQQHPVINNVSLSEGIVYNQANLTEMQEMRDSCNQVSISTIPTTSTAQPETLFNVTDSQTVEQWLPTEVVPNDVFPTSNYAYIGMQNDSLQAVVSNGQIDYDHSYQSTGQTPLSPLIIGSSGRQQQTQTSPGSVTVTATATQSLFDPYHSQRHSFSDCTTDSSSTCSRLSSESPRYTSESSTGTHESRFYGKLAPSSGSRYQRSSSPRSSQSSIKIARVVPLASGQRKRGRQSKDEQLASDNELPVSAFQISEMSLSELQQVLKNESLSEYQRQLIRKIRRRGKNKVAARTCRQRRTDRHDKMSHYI

Prothrombin = Prothrombin (Homo sapiens, UniProt P00734); assay: Thrombin 1536 HTS Dose Response Confirmation. [Related pubchem assays: 1046 (Thrombin 1536 HTS; hits were confirmed in this assay)]; type: functional

DNA dC->dU-editing enzyme APOBEC-3G, sequence (Q9HC16 whole entry): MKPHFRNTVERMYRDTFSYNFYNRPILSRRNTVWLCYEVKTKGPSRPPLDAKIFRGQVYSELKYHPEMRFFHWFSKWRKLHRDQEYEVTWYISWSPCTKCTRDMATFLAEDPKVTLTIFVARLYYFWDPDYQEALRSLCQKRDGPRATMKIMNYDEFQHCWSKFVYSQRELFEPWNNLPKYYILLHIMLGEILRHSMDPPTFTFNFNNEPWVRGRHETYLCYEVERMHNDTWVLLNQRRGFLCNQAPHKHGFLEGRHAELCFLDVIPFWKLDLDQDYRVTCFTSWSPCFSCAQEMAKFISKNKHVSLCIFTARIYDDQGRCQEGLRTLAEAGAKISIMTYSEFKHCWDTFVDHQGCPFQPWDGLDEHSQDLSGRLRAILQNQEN
Peroxisome proliferator-activated receptor gamma/Nuclear receptor coactivator 3, sequence (P37231 whole entry): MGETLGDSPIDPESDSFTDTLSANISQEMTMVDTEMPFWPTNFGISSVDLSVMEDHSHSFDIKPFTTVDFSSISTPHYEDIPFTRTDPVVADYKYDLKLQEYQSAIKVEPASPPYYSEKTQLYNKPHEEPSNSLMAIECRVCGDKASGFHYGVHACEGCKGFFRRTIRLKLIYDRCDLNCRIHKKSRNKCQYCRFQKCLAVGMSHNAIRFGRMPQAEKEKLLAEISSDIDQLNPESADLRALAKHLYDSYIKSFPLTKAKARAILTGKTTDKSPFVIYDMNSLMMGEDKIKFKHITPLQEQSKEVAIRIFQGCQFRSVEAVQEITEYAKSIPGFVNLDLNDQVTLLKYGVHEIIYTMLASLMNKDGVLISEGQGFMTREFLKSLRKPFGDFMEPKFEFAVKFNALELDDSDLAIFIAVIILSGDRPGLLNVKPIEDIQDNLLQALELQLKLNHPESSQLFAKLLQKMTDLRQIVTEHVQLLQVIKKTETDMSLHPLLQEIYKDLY
Peroxisome proliferator-activated receptor gamma/Nuclear receptor coactivator 3, sequence (Q9Y6Q9 whole entry, further chain): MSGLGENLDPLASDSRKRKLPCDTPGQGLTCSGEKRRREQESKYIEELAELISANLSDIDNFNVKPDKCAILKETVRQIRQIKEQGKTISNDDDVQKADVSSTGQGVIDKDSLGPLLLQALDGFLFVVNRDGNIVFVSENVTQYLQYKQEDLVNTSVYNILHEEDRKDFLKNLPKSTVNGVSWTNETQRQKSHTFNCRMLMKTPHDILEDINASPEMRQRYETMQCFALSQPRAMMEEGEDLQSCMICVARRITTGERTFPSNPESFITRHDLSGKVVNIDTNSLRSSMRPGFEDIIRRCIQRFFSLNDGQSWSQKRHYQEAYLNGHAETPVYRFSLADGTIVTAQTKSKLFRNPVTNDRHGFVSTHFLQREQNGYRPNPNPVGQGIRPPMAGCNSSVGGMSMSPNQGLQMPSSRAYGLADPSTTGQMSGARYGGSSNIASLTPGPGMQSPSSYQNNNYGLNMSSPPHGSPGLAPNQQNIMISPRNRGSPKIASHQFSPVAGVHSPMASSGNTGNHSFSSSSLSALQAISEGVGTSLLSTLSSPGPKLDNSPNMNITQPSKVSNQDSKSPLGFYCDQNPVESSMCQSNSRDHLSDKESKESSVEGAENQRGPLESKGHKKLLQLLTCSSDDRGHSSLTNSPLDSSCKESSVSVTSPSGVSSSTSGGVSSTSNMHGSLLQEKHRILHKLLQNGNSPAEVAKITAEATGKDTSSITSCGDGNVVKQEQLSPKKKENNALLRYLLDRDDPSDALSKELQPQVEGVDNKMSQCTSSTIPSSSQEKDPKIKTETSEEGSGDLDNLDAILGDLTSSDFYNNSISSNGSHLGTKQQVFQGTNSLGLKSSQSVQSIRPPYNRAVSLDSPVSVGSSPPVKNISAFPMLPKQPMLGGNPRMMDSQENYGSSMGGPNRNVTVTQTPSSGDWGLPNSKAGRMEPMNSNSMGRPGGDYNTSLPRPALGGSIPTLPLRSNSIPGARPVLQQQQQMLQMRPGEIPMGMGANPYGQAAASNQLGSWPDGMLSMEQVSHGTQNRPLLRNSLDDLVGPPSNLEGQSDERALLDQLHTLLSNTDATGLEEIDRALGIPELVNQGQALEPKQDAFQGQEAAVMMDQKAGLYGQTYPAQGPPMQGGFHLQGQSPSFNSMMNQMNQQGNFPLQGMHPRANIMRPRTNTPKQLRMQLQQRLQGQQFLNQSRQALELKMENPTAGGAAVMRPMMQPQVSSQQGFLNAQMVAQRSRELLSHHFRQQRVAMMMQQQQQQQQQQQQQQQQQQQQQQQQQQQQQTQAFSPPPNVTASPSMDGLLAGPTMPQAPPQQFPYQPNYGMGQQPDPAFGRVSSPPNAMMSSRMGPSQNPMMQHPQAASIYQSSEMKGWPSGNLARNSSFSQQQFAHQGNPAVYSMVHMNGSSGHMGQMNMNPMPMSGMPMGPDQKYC
Peroxisome proliferator-activated receptor gamma/Nuclear receptor coactivator 1, sequence (P37231 whole entry): as the sequence (P37231 whole entry) above
Peroxisome proliferator-activated receptor gamma/Nuclear receptor coactivator 1, sequence (Q15788 whole entry, further chain): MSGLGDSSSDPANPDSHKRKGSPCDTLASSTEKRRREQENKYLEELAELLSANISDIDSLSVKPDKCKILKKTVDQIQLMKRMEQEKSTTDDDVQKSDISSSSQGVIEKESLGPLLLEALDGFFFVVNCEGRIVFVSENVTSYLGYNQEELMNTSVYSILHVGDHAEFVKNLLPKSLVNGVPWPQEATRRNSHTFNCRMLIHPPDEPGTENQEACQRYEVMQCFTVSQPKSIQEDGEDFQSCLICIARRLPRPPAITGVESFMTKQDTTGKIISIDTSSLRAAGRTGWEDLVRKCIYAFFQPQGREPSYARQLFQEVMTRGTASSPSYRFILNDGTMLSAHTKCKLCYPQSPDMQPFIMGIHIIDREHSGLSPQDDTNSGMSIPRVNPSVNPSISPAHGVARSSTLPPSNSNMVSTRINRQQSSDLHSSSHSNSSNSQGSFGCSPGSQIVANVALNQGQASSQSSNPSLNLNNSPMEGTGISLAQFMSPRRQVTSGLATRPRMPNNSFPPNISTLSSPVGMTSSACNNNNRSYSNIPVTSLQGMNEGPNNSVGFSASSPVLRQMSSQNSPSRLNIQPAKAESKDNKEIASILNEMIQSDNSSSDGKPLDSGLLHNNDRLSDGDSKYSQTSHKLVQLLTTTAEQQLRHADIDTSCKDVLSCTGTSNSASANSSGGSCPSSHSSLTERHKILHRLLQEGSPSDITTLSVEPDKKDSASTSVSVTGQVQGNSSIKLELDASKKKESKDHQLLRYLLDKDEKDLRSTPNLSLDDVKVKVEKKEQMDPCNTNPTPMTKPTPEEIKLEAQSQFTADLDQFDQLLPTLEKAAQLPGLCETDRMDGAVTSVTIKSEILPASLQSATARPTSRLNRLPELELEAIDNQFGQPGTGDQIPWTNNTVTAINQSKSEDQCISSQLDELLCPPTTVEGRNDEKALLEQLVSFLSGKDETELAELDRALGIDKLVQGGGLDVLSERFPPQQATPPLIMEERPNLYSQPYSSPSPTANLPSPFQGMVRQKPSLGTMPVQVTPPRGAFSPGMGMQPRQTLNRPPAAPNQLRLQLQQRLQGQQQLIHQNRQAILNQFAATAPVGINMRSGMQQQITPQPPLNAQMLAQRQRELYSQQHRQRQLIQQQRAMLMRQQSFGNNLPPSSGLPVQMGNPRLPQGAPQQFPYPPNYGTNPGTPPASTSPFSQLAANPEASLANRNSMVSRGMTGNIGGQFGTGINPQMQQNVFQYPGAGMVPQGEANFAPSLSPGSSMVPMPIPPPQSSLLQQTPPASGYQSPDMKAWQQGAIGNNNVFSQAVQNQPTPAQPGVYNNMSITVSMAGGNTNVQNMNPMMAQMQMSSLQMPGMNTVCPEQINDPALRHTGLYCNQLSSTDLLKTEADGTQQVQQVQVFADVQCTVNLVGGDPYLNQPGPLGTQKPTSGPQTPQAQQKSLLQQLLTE
DNA dC->dU-editing enzyme APOBEC-3A, sequence (P31941 whole entry): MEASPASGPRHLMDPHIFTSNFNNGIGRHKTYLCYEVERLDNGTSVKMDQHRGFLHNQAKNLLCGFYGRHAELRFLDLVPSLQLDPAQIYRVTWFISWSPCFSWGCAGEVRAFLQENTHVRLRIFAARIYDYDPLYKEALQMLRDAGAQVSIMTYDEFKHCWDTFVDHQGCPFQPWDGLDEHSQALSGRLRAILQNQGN
Cytochrome P450 3A4, sequence (P08684 whole entry): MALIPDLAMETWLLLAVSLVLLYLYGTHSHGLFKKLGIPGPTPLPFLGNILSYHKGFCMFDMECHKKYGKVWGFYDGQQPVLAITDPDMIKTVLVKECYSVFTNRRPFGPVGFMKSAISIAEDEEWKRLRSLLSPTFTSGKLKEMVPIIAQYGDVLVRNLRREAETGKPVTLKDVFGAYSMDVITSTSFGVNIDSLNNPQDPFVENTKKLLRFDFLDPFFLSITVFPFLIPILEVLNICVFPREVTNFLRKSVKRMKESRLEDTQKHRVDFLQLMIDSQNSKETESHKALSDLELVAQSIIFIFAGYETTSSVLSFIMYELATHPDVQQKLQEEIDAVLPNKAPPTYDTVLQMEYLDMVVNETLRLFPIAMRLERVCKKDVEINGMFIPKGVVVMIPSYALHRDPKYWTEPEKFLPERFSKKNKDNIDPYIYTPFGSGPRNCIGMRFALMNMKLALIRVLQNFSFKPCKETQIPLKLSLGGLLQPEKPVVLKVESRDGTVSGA

Row | Structure (SMILES) | IC50 [2] | IC50 [3] | EC50 [4] | EC50 [5] | EC50 [6] | further results
1 | CCCCn1nc2cc(C(=O)NC3CCCc4ccccc43)ccc2c1OCC (stereo unspecified) |  |  |  |  |  | AC50 (Cytochrome P450 2D6): 22.4 µM (inconclusive); AC50 (Cytochrome P450 3A4): 35.5 µM (inconclusive); IC50 [1]: 12.9 µM (active); AC50 (Cytochrome P450 2C19): 39.8 µM (inconclusive); AC50 (Cytochrome P450 1A2): 39.8 µM (inconclusive); AC50 (Cytochrome P450 2C9): 22.4 µM (inconclusive)
2 | CN(C)c1cc[n+](CC(=O)Nc2ccc(OC(F)F)cc2)cc1 | 4.21 µM (active) | 2.44 µM (active) |  |  |  | 
3 | Cn1c(=O)cc(SCC(=O)N2CCC3(CC2)OCCO3)c2ccc(Cl)cc21 |  |  | > 79.4 µM (inactive) | > 79.4 µM (not active) | > 79.4 µM (not active) | 
4 | N#Cc1ccc(-c2ccc3c(c2)OCO3)nc1SCC(=O)OCc1ccccc1 |  |  | 5.85 µM (active) | 7.23 µM (active) | 20.4 µM (not active) | 
5 | Sc1ncnc2sc(-c3ccccc3)cc12 |  |  | 8.82 µM (active) | 34.7 µM (not active) | > 79.4 µM (not active) | IC50 (cells): 49.3 µM (active)
6 | CSCCNCc1cn(-c2ccc(F)cc2F)nc1-c1ccccc1C |  |  |  |  |  | EC50 [7]: 5.96 µM (active)
7 | O=[N+]([O-])c1ccc2nc(N3CCCC3)sc2c1 | 4.86 µM (active) | 5.31 µM (active) |  |  |  | IC50 (Protein skinhead-1): 39.1 µM (active)
8 | N=c1n(CCO)c2ccccc2n1Cc1ccccc1 |  |  |  |  |  | IC50 (Prothrombin): > 50 µM (not active); EC50 [7]: 5.31 µM (active)
9 | C[N+]1(C)CCN(c2ccccc2)CC1 [DIMETHYLPHENYLPIPERAZINIUM IODIDE] | 2.62 µM (active) | 1.93 µM (active) |  |  |  | 
